Data from article PMC12920294, “Optimizing uPAR-targeting radiopeptides for improved tissue distribution: progress towards radionuclide therapy” (European Journal of Nuclear Medicine and Molecular Imaging, 2025).
Read-outs that look alike come from different tables or passages of the source. Marks after values point to notes of the source that are not given here.

Key:
[1] = system: HEK-uPAR xenograft-bearing mice; settings: mouse, in vivo
Method: (§1) HEK-uPAR xenografted mice were injected with the respective radiopeptide (5 MBq, 0.5 nmol/mouse, 100 µL 0.9% NaCl containing 0.05% BSA) and sacrificed at 4 h and 24 h after injection. […] The tissues and organs of interest were collected, weighed and counted for activity using a γ-counter (Wallac Wizard 1480, PerkinElmer). […] The results were presented as the average ± SD of n = 3 mice. The time-activity curves were determined for the uptake of [^177Lu]Lu-DOTA-AE105 and [^177Lu]Lu-uPAR-11 in the blood, HEK-uPAR xenografts, kidneys and liver based on non-decay corrected biodistribution data. For the blood, the initial uptake (t = 0) was set as 50% IA/g assuming a blood volume of 2 mL for CD1 nude mice. The initial uptake value (t = 0) for all other organs and tissues was set as 0% IA/g. […] The area under the curves over 48 h after injection (AUC0h→48 h) was calculated using GraphPad Prism software (version 10.1.1). Statistical analyses were performed by applying a one-way ANOVA test with a Dunnet’s multiple comparison post‐test to compare the data of the new radiopeptides with those of [^177Lu]Lu-DOTA-AE105 and a Tukey’s multiple comparisons post‐test to compare the novel radiopeptides among them. A p-value of < 0.05 was considered a statistically significant difference using GraphPad Prism software (version 10.1.1).

[2] = set-up: method as in Beyer et al. 2025, Mol Pharm 22:3242; settings: saline, L-ascorbic acid, ref Beyer et al. 2025, Mol Pharm 22:3242, cited from earlier work
[3] = set-up: method as in Beyer et al. 2025, Mol Pharm 22:3242; settings: 37 °C, ref Beyer et al. 2025, Mol Pharm 22:3242, cited from earlier work
[4] = set-up: method as in Beyer et al. 2025, Mol Pharm 22:3242; settings: 37 °C, ref Beyer et al. 2025, Mol Pharm 22:3242, cited from earlier work; remark: listed apart in the source
[5] = set-up: method as in Beyer et al. 2025, Mol Pharm 22:3242; settings: FVB mice, ref Beyer et al. 2025, Mol Pharm 22:3242, cited from earlier work
[6] = molecular target: human serum albumin (Homo sapiens, UniProt P02768); settings: cited from earlier work
[7] = system: HEK-uPAR xenograft-bearing mice; settings: ref Beyer et al. 2025, Mol Pharm 22:3242, cited from earlier work
[8] = Biodistribution in HEK-uPAR xenografted nude mice; settings: CD1 nude, mouse, 0.5 nmol/mouse, total radioactivity, 1 h p.i., decay-corrected
Method: as §1

[9] = system: HEK-uPAR xenograft-bearing mice; assay: Biodistribution in HEK-uPAR xenografted nude mice
Method: as §1

[10] = non-decay-corrected, ± standard error

human serum albumin, sequence (P02768 25-609): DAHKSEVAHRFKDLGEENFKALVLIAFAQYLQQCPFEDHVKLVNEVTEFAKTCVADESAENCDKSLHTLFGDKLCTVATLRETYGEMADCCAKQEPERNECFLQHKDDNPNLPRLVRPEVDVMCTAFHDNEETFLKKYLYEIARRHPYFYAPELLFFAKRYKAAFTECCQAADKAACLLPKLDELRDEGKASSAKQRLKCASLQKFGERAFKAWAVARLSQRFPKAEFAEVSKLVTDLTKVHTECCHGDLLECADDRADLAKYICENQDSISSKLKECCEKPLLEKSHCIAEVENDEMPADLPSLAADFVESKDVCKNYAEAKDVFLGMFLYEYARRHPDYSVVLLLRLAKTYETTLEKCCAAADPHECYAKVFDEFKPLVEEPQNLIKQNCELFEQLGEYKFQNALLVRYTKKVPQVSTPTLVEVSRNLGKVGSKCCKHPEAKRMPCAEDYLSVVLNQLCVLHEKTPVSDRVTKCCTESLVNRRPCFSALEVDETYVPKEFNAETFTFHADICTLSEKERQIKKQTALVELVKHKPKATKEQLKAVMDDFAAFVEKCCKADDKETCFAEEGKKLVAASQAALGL

For `CC(C)C[C@H](NC(=O)[C@H](Cc1ccc(O)cc1)NC(=O)[C@@H](CCCNC(=N)N)NC(=O)[C@@H](CO)NC(=O)[C@H](Cc1ccccc1)NC(=O)[C@H](CC1CCCCC1)NC(=O)[C@H](CC(=O)O)NC(=O)CN1CCN(CC(=O)O)CCN(CC(=O)O)CCN(CC(=O)O)CC1)C(=O)N[C@@H](Cc1c[nH]c2ccccc12)C(=O)N[C@@H](CO)C(N)=O` [[^177Lu]Lu-DOTA-AE105, metal not drawn], the Xgrft-to-kidney ratio [1] is given as 0.46 ± 0.07, the “Radiolytic stability, intact radiopeptide” value (shortened to “Radiolytic stability”) ([2]; 1 h) is given as 98 ± 2% and the “Radiolytic stability” value ([2]; 4 h) is given as 98 ± 1%. For the same compound, the “Radiolytic stability” value ([2]; 24 h) was 96 ± 2%, the “Mouse blood plasma stability, intact radiopeptide” value (“Mouse blood plasma stability” below) ([3]; 1 h) was 61 ± 6% and the “Mouse blood plasma stability” value ([3]; 4 h) was 13 ± 7%. For the same compound, the “Mouse blood plasma stability” value ([3]; 24 h) was 4.6 ± 2.2%, the “Human blood plasma stability, intact radiopeptide” value (from here on “Human blood plasma stability”) ([4]; 1 h) was 71 ± 3% and the “Human blood plasma stability” value ([4]; 4 h) was 13 ± 6%. For the same compound, the “Human blood plasma stability” value ([4]; 24 h) was 4.5 ± 1.2%, the “Blood plasma, intact radiopeptide” value ([5]; 1 h p.i.) was <1.0% and the “Blood plasma, radiometabolite” value ([5]; 1 h p.i.) was >99%. The “Kidneys, intact radiopeptide” value ([5]; 1 h p.i.) was <1.0%, the “Kidneys, radiometabolite” value ([5]; 1 h p.i.) was >99% and the “Liver, intact radiopeptide” value ([5]; 1 h p.i.) was <1.0%. For the same compound, the “Liver, radiometabolite” value ([5]; 1 h p.i.) was >99%, the “Urine, intact radiopeptide” value ([5]; 1 h p.i.) was 1.4% and the “Urine, radiometabolite” value ([5]; 1 h p.i.) was 99%. For the same compound, the “Blood plasma, intact radiopeptide” value ([5]; 4 h p.i.) was <1.0%, the “Blood plasma, radiometabolite” value ([5]; 4 h p.i.) was >99% and the “Kidneys, intact radiopeptide” value ([5]; 4 h p.i.) was <1.0%. For the same compound, the “Kidneys, radiometabolite” value ([5]; 4 h p.i.) was >99%, the “Liver, intact radiopeptide” value ([5]; 4 h p.i.) was <1.0% and the “Liver, radiometabolite” value ([5]; 4 h p.i.) was >99%. For the same compound, the “Urine, intact radiopeptide” value ([5]; 4 h p.i.) was 2.3%, the “Urine, radiometabolite” value ([5]; 4 h p.i.) was 98% and the “Inverse relative albumin-binding affinity” value [6] was 0.02^a. The Blood uptake ([7]; 4 h p.i.) was 0.08 ± 0.01 %IA/g, the Bone uptake ([7]; 4 h p.i.) was 0.38 ± 0.03 %IA/g and the Brain uptake ([7]; 4 h p.i.) was <0.03 %IA/g. For the same compound, the HEK-uPAR xenograft uptake ([7]; 4 h p.i.) was 0.87 ± 0.05 %IA/g, the Heart uptake ([7]; 4 h p.i.) was 0.06 ± 0.01 %IA/g and the Intestines uptake ([7]; 4 h p.i.) was 0.31 ± 0.03 %IA/g. For the same compound, the Kidneys uptake ([7]; 4 h p.i.) was 1.5 ± 0.1 %IA/g, the Liver uptake ([7]; 4 h p.i.) was 0.10 ± 0.01 %IA/g and the Lung uptake ([7]; 4 h p.i.) was 0.30 ± 0.02 %IA/g. The Muscle uptake ([7]; 4 h p.i.) was <0.03 %IA/g, the Pancreas uptake ([7]; 4 h p.i.) was 0.06 ± 0.01 %IA/g and the Salivary glands uptake ([7]; 4 h p.i.) was 0.09 ± 0.01 %IA/g. For the same compound, the Spleen uptake ([7]; 4 h p.i.) was 0.18 ± 0.02 %IA/g, the Stomach uptake ([7]; 4 h p.i.) was 0.15 ± 0.03 %IA/g and the Xgrft-to-blood ratio ([7]; 4 h p.i.) was 11 ± 1. For the same compound, the Xgrft-to-liver ratio ([7]; 4 h p.i.) was 8.6 ± 0.4, the Blood uptake ([7]; 24 h p.i.) was <0.03 %IA/g and the Bone uptake ([7]; 24 h p.i.) was 0.84 ± 0.10 %IA/g. For the same compound, the Brain uptake ([7]; 24 h p.i.) was <0.03 %IA/g, the HEK-uPAR xenograft uptake ([7]; 24 h p.i.) was 0.40 ± 0.19 %IA/g and the Heart uptake ([7]; 24 h p.i.) was 0.04 ± 0.01 %IA/g. For the same compound, the Intestines uptake ([7]; 24 h p.i.) was 0.18 ± 0.02 %IA/g, the Kidneys uptake ([7]; 24 h p.i.) was 1.3 ± 0.1 %IA/g and the Liver uptake ([7]; 24 h p.i.) was 0.17 ± 0.01 %IA/g. For the same compound, the Lung uptake ([7]; 24 h p.i.) was 0.21 ± 0.01 %IA/g, the Muscle uptake ([7]; 24 h p.i.) was <0.03 %IA/g and the Pancreas uptake ([7]; 24 h p.i.) was 0.06 ± 0.01 %IA/g. The Salivary glands uptake ([7]; 24 h p.i.) was 0.09 ± 0.01 %IA/g, the Spleen uptake ([7]; 24 h p.i.) was 0.23 ± 0.04 %IA/g and the Stomach uptake ([7]; 24 h p.i.) was 0.17 ± 0.03 %IA/g. For the same compound, the Xgrft-to-blood ratio ([7]; 24 h p.i.) was 32 ± 13, the Xgrft-to-liver ratio ([7]; 24 h p.i.) was 2.4 ± 0.9 and the tissue uptake at 1 h ([8]; HEK-uPAR xenograft, HEK-uPAR xenograft uptake) was 1.9 ± 0.7 %ID/g. The tissue uptake at 1 h ([8]; blood, Blood uptake) was 0.92 ± 0.4 %ID/g, the tissue uptake at 1 h ([8]; bone, Bone uptake) was 0.35 ± 0.11 %ID/g and the tissue uptake at 1 h ([8]; brain, Brain uptake) was < 0.03 %ID/g. The tissue uptake at 1 h ([8]; heart, Heart uptake) was 0.38 ± 0.16 %ID/g, the tissue uptake at 1 h ([8]; intestines, Intestines uptake) was 0.52 ± 0.1 %ID/g and the tissue uptake at 1 h ([8]; kidneys, Kidneys uptake) was 4.2 ± 0.8 %ID/g. It also gave a tissue uptake at 1 h ([8]; liver, Liver uptake) of 0.4 ± 0.14 %ID/g, a tissue uptake at 1 h ([8]; lung, Lung uptake) of 1.2 ± 0.4 %ID/g and a tissue uptake at 1 h ([8]; muscle, Muscle uptake) of 0.14 ± 0.06 %ID/g. The tissue uptake at 1 h ([8]; pancreas, Pancreas uptake) was 0.26 ± 0.08 %ID/g, the tissue uptake at 1 h ([8]; salivary glands, Salivary glands uptake) was 0.35 ± 0.13 %ID/g and the tissue uptake at 1 h ([8]; spleen, Spleen uptake) was 0.47 ± 0.17 %ID/g. It also gave a tissue uptake at 1 h ([8]; stomach, Stomach uptake) of 0.39 ± 0.2 %ID/g, a Xgrft-to-blood ratio ([9]; 1 h p.i.) of 2.2 ± 0.2 and a Xgrft-to-liver ratio ([9]; 1 h p.i.) of 4.9 ± 0.1. For the same compound, the “AUC0h→48h, HEK-uPAR xenograft” value [9, 10] was 26 ± 3 % IA/g*h, the “AUC0h→48h, blood” value [9, 10] was 28 ± 1 % IA/g*h and the “AUC0h→48h, kidneys” value [9, 10] was 62 ± 2 % IA/g*h. The “AUC0h→48h, liver” value [9, 10] was 6.9 ± 0.2 % IA/g*h.
